Reference: ChEMBL document CHEMBL5338776, “Design and Characterization of Squaramic Acid-Based Prostate-Specific Membrane Antigen Inhibitors for Prostate Cancer” (J Med Chem, 2023)
Blank lines part the entries; values can stand above or below the compound they belong to.

Columns and labels:
[1] = biological target: T1, Glutamate carboxypeptidase 2 (Homo sapiens, UniProt Q04609); assay: Binding affinity to human recombinant PSMA (unknown origin) assessed as inhibition constant incubated for 60 mins in presence of NAAG
T1 sequence (Q04609 whole entry): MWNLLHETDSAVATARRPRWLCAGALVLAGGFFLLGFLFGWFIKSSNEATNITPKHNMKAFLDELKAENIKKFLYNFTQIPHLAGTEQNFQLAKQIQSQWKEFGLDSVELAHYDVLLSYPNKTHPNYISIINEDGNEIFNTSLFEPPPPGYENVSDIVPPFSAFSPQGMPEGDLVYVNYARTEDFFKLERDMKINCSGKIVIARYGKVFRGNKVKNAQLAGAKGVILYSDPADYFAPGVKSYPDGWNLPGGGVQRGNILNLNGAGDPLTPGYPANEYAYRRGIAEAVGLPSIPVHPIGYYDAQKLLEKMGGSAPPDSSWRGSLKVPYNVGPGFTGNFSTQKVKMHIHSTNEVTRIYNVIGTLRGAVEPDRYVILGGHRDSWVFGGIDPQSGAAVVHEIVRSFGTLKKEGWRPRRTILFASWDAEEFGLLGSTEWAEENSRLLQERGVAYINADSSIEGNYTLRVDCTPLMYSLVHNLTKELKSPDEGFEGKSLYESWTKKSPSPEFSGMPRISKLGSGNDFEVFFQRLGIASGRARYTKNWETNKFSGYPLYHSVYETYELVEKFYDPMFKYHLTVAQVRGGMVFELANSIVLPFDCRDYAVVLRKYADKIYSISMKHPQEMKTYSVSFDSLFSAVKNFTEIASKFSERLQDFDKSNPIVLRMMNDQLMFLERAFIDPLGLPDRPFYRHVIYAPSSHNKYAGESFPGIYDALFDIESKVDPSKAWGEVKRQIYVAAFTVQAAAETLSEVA

[2] = Drug uptake in 22Rv1 tumor bearing mouse assessed as fluorescence in muscle measured at 0.85 mg/kg, iv after 24 hrs by NIR-II imaging analysis; type: ADME, organism-based, Muscle tissue; conditions: in vivo
[3] = Drug uptake in 22Rv1 tumor bearing mouse assessed as fluorescence in lung measured at 0.85 mg/kg, iv after 24 hrs by NIR-II imaging analysis; type: ADME, organism-based; conditions: in vivo
[4] = Drug uptake in 22Rv1 tumor bearing mouse assessed as fluorescence in spleen measured at 0.85 mg/kg, iv after 24 hrs by NIR-II imaging analysis; type: ADME, organism-based; conditions: in vivo
[5] = Drug uptake in 22Rv1 tumor bearing mouse assessed as fluorescence in brain measured at 0.85 mg/kg, iv after 24 hrs by NIR-II imaging analysis; type: ADME, organism-based; conditions: in vivo
[6] = Drug uptake in 22Rv1 tumor bearing mouse assessed as fluorescence in liver measured at 0.85 mg/kg, iv after 24 hrs by NIR-II imaging analysis; type: ADME, organism-based; conditions: in vivo
[7] = Drug uptake in 22Rv1 tumor bearing mouse assessed as fluorescence in kidney measured at 0.85 mg/kg, iv after 24 hrs by NIR-II imaging analysis; type: ADME, organism-based; conditions: in vivo
[8] = Drug uptake in 22Rv1 tumor bearing mouse assessed as fluorescence in tumor measured at 0.85 mg/kg, iv after 24 hrs by NIR-II imaging analysis; type: ADME, organism-based, Neoplasm; conditions: in vivo
[9] = Drug uptake in 22Rv1 tumor bearing mouse assessed as fluorescence in heart measured at 0.85 mg/kg, iv after 24 hrs by NIR-II imaging analysis; type: ADME, organism-based; conditions: in vivo
[10] = Drug uptake in 22Rv1 tumor bearing mouse assessed as tumor to normal tissue ratio measured at 0.85 mg/kg, iv after 24 hrs by NIR-II imaging analysis; type: ADME, organism-based; conditions: in vivo
[11] = Drug uptake in 22Rv1 tumor bearing mouse measured at 0.85 mg/kg, iv after 24 hrs in presence of (2S)-2-[[(1S)-1-Carboxy-5-[(4-iodobenzoyl)amino]pentyl]carbamoylamino]pentanedioic acid by NIR-II imaging analysis; type: ADME, organism-based, Neoplasm; conditions: in vivo
[12] = Drug uptake in 22Rv1 tumor bearing mouse assessed as fluorescence in stomach measured at 0.85 mg/kg, iv after 24 hrs by NIR-II imaging analysis; type: ADME, organism-based; conditions: in vivo
[13] = Drug uptake in 22Rv1 tumor bearing mouse assessed as fluorescence in intestine measured at 0.85 mg/kg, iv after 24 hrs by NIR-II imaging analysis; type: ADME, organism-based; conditions: in vivo
[14] = Drug uptake in 22Rv1 tumor bearing mouse assessed as fluorescence in pancreas measured at 0.85 mg/kg, iv after 24 hrs by NIR-II imaging analysis; type: ADME, organism-based; conditions: in vivo
[15] = Drug uptake in 22Rv1 tumor bearing mouse assessed as tumor to liver ratio measured at 0.85 mg/kg, iv after 24 hrs by NIR-II imaging analysis; type: ADME, organism-based; conditions: in vivo
[16] = biological target: T1, Glutamate carboxypeptidase 2; assay: Binding affinity to PSMA (unknown origin) assessed as inhibition constant

Ki [1]: 0.9 nM
Structure (SMILES): O=C(N[C@@H](CCCCNC(=O)c1ccc(F)cc1)C(=O)O)N[C@@H](CNc1c(O)c(=O)c1=O)C(=O)O

Drug uptake [2]: Not Active
Drug uptake [3]: Not Active
Drug uptake [4]: Not Active
Drug uptake [5]: Not Active
Drug uptake [6]: Active
Drug uptake [7]: Active
Drug uptake [8]: Active
Drug uptake [9]: Not Active
Ki [1]: 1.07 nM
Ratio [10]: 4.79
Drug uptake [11]: Not Active
Drug uptake [12]: Not Active
Drug uptake [13]: Not Active
Drug uptake [14]: Not Active
Ratio [15]: 5.39
Structure (SMILES): CN(CCC(=O)NCCCC[C@H](NC(=O)N[C@@H](CNc1c(O)c(=O)c1=O)C(=O)O)C(=O)O)c1ccc(-c2c3c(c(-c4ccc(N(C)CCC(=O)NCCC[C@H](NC(=O)N[C@@H](CNc5c(O)c(=O)c5=O)C(=O)O)C(=O)O)cc4)c4nsnc24)N=S=N3)cc1

Ratio [10]: 6.66
Structure (SMILES): CN(CCC(=O)NCCCC[C@H](NC(=O)N[C@@H](CCC(=O)O)C(=O)O)C(=O)O)c1ccc(-c2c3c(c(-c4ccc(N(C)CCC(=O)NCCCC[C@H](NC(=O)N[C@@H](CCC(=O)O)C(=O)O)C(=O)O)cc4)c4nsnc24)N=S=N3)cc1

Ki [1]: 0.41 nM
Structure (SMILES): O=C(N[C@@H](CCCCNC(=O)c1cc(F)cc(C(=O)NCCCC[C@H](NC(=O)N[C@@H](CNc2c(O)c(=O)c2=O)C(=O)O)C(=O)O)c1)C(=O)O)N[C@@H](CNc1c(O)c(=O)c1=O)C(=O)O

Ki [1]: 0.86 nM
Structure (SMILES): O=C(O)CC[C@H](NC(=O)N[C@@H](CCCNC(=O)c1ccc(F)cc1)C(=O)O)C(=O)O

Ki [16]: 0.74 nM
Structure (SMILES): CC1(C)C(/C=C2/C(=O)C(/C=C3\N(CCCCCC(=O)NCCCC[C@H](NC(=O)N[C@@H](CCC(=O)O)C(=O)O)C(=O)O)c4ccccc4C3(C)C)=C2[O-])=[N+](CCCCCC(=O)NCCCC[C@H](NC(=O)N[C@@H](CCC(=O)O)C(=O)O)C(=O)O)c2ccccc21

Ki [1]: 221 nM
Structure (SMILES): O=C(O)CC(=O)NC[C@H](NC(=O)N[C@@H](CCCCNC(=O)c1ccc(I)cc1)C(=O)O)C(=O)O

Ki [1]: 33.8 nM
Structure (SMILES): O=C(O)CC(=O)NC[C@H](NC(=O)N[C@@H](CCCCNC(=O)c1cc(I)cc(C(=O)NCCCC[C@H](NC(=O)N[C@@H](CNC(=O)CC(=O)O)C(=O)O)C(=O)O)c1)C(=O)O)C(=O)O

Ki [1]: 107 nM
Structure (SMILES): O=C(O)CC[C@H](Nc1c(N[C@@H](CCCCNC(=O)c2cc(I)cc(C(=O)NCCCC[C@H](Nc3c(N[C@@H](CCC(=O)O)C(=O)O)c(=O)c3=O)C(=O)O)c2)C(=O)O)c(=O)c1=O)C(=O)O

Ki [1]: 0.4 nM
Structure (SMILES): O=C(N[C@@H](CCCCNC(=O)c1cc(I)cc(C(=O)NCCCC[C@H](NC(=O)N[C@@H](CNc2c(O)c(=O)c2=O)C(=O)O)C(=O)O)c1)C(=O)O)N[C@@H](CNc1c(O)c(=O)c1=O)C(=O)O

Ki [1]: 1.35 nM
Structure (SMILES): O=C(NC(CCCCNC(=O)c1ccc(I)cc1)C(=O)O)N[C@@H](CNc1c(O)c(=O)c1=O)C(=O)O (stereo not given in full)
